The source made the active and inactive calls.
Assays:
[1] = molecular target: Peroxisome proliferator-activated receptor gamma/Nuclear receptor coactivator 1 (Homo sapiens, UniProt P37231); assay: (§1) TR-FRET dose response biochemical High Throughput Screening assay for agonists of the steroid receptor coactivator 1 (SRC-1) recruitment by the peroxisome proliferator-activated receptor gamma (PPAR gamma): non-selective agonists. [Related pubchem assays (depositor defined):AID1300, AID1808, AID504735, AID631]; format: protein assay
[2] = test system: Streptococcus sp. 'group A'; assay: growth inhibition of control SK(-) GAS strain, dose response, counter-screen for streptokinase expression inhibitor project, luminescence, kanamycin, BacTiterGlo, confirmation (AID 1900); format: functional, organism-based
[3] = molecular target: Peroxisome proliferator-activated receptor gamma/Nuclear receptor coactivator 3 (Homo sapiens, UniProt P37231); assay: as §1, with “3 (SRC-3)” for “1 (SRC-1)”, “assays: 1301 (Confirmation screen.), 1048 (Primary screen.)]” for “assays (depositor defined):AID1300, AID1808, AID504735, AID631]”; format: functional
Chain of Peroxisome proliferator-activated receptor gamma/Nuclear receptor coactivator 3 (P37231 whole entry): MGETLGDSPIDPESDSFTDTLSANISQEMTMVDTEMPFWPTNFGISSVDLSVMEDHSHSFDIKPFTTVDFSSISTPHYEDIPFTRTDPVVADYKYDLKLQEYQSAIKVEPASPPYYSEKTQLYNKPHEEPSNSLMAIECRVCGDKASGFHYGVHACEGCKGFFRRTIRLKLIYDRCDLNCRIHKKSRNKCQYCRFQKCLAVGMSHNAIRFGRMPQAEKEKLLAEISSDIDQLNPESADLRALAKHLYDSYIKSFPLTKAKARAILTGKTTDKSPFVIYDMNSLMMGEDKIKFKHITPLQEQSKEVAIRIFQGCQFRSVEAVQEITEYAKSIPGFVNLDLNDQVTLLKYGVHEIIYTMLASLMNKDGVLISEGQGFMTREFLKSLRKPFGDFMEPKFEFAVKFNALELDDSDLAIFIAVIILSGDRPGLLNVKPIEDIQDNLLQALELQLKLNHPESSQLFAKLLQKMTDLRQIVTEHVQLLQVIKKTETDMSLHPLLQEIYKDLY
Chain of Peroxisome proliferator-activated receptor gamma/Nuclear receptor coactivator 3 (Q9Y6Q9 whole entry, further chain): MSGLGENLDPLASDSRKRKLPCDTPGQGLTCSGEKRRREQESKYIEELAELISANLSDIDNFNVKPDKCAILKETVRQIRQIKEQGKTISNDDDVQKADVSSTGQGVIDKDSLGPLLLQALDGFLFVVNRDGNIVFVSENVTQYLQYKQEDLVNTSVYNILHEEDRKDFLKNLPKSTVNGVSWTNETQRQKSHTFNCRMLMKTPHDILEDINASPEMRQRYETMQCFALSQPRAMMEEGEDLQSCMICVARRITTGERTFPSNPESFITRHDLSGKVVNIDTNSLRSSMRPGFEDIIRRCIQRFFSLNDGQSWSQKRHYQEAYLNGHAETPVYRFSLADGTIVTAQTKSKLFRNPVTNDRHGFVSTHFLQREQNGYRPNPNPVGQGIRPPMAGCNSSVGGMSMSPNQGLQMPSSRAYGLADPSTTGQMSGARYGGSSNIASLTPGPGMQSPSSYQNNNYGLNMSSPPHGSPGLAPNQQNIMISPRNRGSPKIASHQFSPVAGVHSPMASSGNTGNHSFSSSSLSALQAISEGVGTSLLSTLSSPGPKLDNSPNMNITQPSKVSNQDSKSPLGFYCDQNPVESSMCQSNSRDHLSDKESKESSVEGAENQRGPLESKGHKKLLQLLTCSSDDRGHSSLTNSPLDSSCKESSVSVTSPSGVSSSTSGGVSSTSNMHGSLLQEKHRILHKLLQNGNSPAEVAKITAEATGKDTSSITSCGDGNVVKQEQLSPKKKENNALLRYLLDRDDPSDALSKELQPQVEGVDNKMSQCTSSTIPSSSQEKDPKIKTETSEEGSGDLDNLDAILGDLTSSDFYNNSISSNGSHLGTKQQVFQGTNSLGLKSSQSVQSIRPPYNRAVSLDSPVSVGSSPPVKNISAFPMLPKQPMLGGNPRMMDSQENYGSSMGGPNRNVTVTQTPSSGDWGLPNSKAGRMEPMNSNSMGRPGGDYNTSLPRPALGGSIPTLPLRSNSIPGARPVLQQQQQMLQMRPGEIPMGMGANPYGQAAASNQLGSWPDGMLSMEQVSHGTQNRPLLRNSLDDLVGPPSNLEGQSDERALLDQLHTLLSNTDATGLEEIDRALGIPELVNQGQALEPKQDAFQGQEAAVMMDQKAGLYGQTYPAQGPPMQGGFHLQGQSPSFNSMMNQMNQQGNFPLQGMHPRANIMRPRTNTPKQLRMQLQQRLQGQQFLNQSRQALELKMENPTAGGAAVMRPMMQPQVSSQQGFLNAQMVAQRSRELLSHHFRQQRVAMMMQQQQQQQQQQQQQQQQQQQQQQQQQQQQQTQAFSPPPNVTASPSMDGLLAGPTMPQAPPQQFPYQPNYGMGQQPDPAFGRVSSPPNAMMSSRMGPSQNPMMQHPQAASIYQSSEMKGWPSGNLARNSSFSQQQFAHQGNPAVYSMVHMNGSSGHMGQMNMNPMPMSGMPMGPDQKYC

[4] = molecular target: T1, Streptokinase A (Streptococcus pyogenes serotype M1, UniProt P10520); assay: S. pyogenes streptokinase expression inhibitors, potency, dose response, plasminogen activation absorbance, OD405 (AID 1914); format: functional, Streptococcus pyogenes M1 GAS;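 further: secreted streptokinase activity via plasminogen activation per viability signal from cell pellet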
T1 sequence (P10520 whole entry): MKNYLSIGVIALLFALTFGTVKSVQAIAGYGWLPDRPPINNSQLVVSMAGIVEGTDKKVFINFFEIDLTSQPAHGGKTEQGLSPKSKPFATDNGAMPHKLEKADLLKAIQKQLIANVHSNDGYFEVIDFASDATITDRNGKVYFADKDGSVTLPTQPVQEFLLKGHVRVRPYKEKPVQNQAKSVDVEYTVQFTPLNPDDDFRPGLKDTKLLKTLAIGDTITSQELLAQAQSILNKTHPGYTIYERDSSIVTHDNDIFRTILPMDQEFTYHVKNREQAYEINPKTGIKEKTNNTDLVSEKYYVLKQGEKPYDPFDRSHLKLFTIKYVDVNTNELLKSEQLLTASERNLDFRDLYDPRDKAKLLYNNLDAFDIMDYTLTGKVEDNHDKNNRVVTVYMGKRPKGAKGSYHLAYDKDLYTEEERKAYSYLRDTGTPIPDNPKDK

[5] = molecular target: Peroxisome proliferator-activated receptor gamma/Nuclear receptor coactivator 2 (Homo sapiens, UniProt P37231); assay: TR-FRET dose response biochemical High Throughput Screening assay for agonists of the steroid receptor coactivator 2 (SRC-2) recruitment by the peroxisome proliferator-activated receptor gamma (PPAR gamma): non-selective agonists. [Related pubchem assays: 1297, 1032 ]; format: functional
Chain of Peroxisome proliferator-activated receptor gamma/Nuclear receptor coactivator 2 (P37231 whole entry): as the sequence (P37231 whole entry) above
Chain of Peroxisome proliferator-activated receptor gamma/Nuclear receptor coactivator 2 (Q15596 whole entry, further chain): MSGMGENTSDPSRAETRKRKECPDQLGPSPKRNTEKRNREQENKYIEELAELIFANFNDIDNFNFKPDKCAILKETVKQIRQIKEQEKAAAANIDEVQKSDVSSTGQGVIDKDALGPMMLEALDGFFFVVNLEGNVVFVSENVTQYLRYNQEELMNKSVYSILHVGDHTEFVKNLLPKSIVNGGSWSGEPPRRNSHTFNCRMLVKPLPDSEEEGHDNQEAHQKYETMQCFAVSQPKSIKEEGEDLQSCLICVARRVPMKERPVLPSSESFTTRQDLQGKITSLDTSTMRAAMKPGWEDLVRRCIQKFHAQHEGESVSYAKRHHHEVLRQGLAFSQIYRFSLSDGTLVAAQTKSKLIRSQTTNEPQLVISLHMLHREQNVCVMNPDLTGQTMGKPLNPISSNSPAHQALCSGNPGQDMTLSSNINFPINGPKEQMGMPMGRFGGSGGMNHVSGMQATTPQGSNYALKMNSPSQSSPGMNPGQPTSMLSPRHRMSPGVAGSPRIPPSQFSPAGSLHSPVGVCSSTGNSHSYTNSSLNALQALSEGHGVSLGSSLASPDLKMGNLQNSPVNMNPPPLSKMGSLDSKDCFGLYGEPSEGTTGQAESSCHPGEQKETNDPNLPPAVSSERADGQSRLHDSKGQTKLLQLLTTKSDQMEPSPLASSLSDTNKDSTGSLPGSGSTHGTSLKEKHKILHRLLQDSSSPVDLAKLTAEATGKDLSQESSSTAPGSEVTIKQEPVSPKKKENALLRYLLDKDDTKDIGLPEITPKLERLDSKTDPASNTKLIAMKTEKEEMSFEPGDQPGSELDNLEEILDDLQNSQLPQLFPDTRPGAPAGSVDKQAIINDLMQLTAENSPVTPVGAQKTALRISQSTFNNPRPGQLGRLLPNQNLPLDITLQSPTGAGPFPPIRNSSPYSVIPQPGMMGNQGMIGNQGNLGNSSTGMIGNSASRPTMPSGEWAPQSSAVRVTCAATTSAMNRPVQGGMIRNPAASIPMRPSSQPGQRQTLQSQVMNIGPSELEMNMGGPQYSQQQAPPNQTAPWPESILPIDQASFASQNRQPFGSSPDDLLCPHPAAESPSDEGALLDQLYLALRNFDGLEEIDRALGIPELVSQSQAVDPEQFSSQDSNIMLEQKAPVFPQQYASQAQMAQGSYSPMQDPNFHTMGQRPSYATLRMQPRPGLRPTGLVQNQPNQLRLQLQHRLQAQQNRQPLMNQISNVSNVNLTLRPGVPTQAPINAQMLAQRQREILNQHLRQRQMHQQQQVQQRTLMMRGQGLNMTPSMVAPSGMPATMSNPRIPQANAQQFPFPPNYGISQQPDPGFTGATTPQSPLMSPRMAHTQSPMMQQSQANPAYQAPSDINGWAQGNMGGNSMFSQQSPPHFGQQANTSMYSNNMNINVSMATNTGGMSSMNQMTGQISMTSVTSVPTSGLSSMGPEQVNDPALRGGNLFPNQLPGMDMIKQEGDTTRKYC

[6] = test system: Streptococcus; assay: Group A Streptococcus viability loss, dose response, counter-screen for streptokinase expression inhibitor project, luminescence, BacTiterGlo (AID 1915); format: functional, organism-based;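 further: potency for reduction of bacterial viability or growth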
[7] = NIH-3T3 fibroblast cytotoxicity, dose response, cytotoxicity control, cell-based, fluorescence, Alamar Blue, secondary assay (AID 2327); format: functional;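 further: NIH-3T3 mouse fibroblasts cultured with fluconazole at 8 µg/mL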
[8] = inhibitors of firefly luciferase expression or activity, dose response, H4 neuroglioma cells, luminescence (AID 1990); format: functional, cell-based
[9] = test system: BJ; assay: cytotoxicity toward BJ-TERT fibroblasts, dose response, cell-based, RAS-independent, luminescence (AID 1933); format: functional; settings: Homo sapiens
[10] = Luminescence Cell-Based Dose Response HTS to Identify Inhibitors of 5'UTR Stem-Loop Driven Prion Protein mRNA Translation in H4 Neuroglioblastoma Cells. [Related pubchem assays: 1827 (Project Summary), 1813 (Primary HTS)]; format: functional
[11] = inhibitors of SNCA 5'UTR-driven reporter translation, confirmation, H4 neuroglioma cells, luminescence (AID 1988); format: functional, cell-based
[12] = test system: BJ; assay: cells; format: functional, cell-based; settings: Homo sapiens
[13] = C. albicans growth with fluconazole, confirmation, fluorescence, retest (AID 2467); format: functional, cell-based
[14] = microbe, parasite or virus in culture; format: functional; settings: Mycobacterium tuberculosis
[15] = test system: BJ; assay: cytotoxicity toward BJ-TERT-LT-ST fibroblasts, dose response, cell-based, RAS-independent, luminescence (AID 1935); format: functional; settings: Homo sapiens;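 further: BJ fibroblasts immortalized with TERT plus LT and ST oncogenes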
[16] = cytotoxicity toward DRD oncogenic fibroblasts, dose response, cell-based, non-viral oncogenic, luminescence (AID 1934); format: functional; settings: Homo sapiens
[17] = molecular target: G-protein coupled receptor 55 (Homo sapiens, UniProt Q9Y2T6); assay: GPR55 agonists via beta-arrestin recruitment, primary screen, imaging, U2OS cells, beta-arrestin-GFP redistribution (AID 1961); format: functional
Chain of G-protein coupled receptor 55 (Q9Y2T6 whole entry): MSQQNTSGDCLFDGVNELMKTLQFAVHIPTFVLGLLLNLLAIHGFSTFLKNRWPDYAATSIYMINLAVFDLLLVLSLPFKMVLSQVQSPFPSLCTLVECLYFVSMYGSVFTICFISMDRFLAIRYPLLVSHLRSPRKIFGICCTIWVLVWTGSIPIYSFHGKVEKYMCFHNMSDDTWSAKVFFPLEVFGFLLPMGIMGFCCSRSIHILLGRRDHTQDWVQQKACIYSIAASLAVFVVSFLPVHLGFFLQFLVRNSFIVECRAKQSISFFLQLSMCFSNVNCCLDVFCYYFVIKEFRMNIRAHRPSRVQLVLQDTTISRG

[18] = molecular target: T2, Bcl-2-related protein A1 (Mus musculus, UniProt Q07440); format: functional;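 further: confirmatory dose–response counterscreen on Bfl-1, used to check hits from a UBC13 polyubiquitin inhibitor campaign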
T2 sequence (Q07440 whole entry): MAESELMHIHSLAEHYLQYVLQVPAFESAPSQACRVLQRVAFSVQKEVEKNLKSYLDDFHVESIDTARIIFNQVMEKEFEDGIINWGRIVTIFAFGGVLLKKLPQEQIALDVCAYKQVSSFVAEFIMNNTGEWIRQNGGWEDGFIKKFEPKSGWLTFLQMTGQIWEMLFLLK

[19] = molecular target: T3, Ubiquitin-conjugating enzyme E2 N (Homo sapiens, UniProt P61088); format: functional
T3 sequence (P61088 whole entry): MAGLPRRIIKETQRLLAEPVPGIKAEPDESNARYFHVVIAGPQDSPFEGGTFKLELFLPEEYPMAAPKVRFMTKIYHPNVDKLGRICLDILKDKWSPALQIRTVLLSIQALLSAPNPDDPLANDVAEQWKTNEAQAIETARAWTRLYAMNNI

[20] = molecular target: T3, Ubiquitin-conjugating enzyme E2 N; format: functional; remark: listed apart in the source
[21] = test system: HEK293; assay: NOD1 signaling inhibitors, primary screen, cell-based, luminescence, uHTS (AID 1578); format: functional; settings: Homo sapiens
[22] = test system: HEK293; assay: cells; format: functional, cell-based; settings: Homo sapiens
[23] = test system: HEK293; assay: cells; format: functional, cell-based; settings: Homo sapiens; remark: listed apart in the source
[24] = molecular target: Nucleotide-binding oligomerization domain-containing protein 2 (Homo sapiens, UniProt Q9HC29); assay: NOD2 signaling inhibitors, cell-based, luminescence, uHTS, HEK293 (AID 1566); format: functional
[25] = test system: HEK293; assay: NOD2 signaling inhibitors in MDP-stimulated cells, cell-based, uHTS, luminescence (AID 2001); format: functional; settings: Homo sapiens
[26] = test system: HEK293; assay: cells; format: functional, cell-based; settings: Homo sapiens; remark: listed apart in the source
[27] = molecular target: Nonstructural protein 1 (Influenza A virus, UniProt Q194T2); format: functional, Influenza A virus (A/California/07/2009(H1N1))
[28] = molecular target: T4, Polyadenylate-binding protein 1 (Homo sapiens, UniProt P11940); assay: PABP1 MLLE–PAM2 interaction inhibitors, dose response, miRNA deadenylation inhibitor project, biochemical, fluorescence polarization, Cy5-PAM2 peptide, secondary (AID 602260); format: functional; settings: read-out: IC50_Mean
T4 sequence (P11940 whole entry): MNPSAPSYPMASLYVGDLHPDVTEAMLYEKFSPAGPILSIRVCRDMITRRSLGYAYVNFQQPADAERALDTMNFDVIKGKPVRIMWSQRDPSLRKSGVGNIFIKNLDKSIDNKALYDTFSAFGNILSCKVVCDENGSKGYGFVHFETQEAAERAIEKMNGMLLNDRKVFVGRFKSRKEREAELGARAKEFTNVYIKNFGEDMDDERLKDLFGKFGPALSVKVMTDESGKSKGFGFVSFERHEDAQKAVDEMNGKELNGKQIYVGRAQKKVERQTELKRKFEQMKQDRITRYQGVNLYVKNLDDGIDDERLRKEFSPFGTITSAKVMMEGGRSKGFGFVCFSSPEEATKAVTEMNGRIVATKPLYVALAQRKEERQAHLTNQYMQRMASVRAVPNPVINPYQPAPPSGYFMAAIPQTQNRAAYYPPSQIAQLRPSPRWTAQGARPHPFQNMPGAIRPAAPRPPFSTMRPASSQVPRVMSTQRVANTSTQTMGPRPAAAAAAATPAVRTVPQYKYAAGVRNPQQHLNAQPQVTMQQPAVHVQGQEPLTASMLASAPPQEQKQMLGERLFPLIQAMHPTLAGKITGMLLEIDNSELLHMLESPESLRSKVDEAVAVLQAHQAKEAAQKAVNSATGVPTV

[29] = molecular target: T4, Polyadenylate-binding protein 1; assay: PABP1 MLLE–PAM2 binding inhibitor potency, dose response, biochemical, fluorescence polarization, FITC-PAM2 peptide (AID 602259); format: functional; settings: read-out: IC50_Mean

CSc1ccccc1-c1nnc(S)o1
EC50 [1]: 22.3 µM (inactive) | EC50 [2]: > 150 µM (not active) | EC50 [3]: > 79.4 µM (not active) | EC50 [4]: > 150 µM (not active) | EC50 [5]: 4.77 µM (active) | EC50 [6]: > 150 µM (not active)

CC[n+]1c(/C=C/N(C)c2ccccc2)n(-c2ccccc2)c2ccc(-c3nc4ccccc4s3)cc21
EC50 [7]: 90 µM (active) | EC50 [8]: 0.35 µM (active) | EC50 [2]: 3.27 µM (active) | EC50 [9]: 2.49 µM (inconclusive) | EC50 [10]: 5.72 µM (active) | EC50 [11]: 0.387 µM (active) | EC50 [4]: 13.3 µM (active) | EC50 [12]: 2.93 µM (inconclusive) | EC50 [13]: 0.337 µM (active) | CC50 [14]: 3.06 µM (active) | EC50 [15]: 2.7 µM (inconclusive) | EC50 [16]: 3.03 µM (active) | EC50 [6]: 12 µM (active) | EC50 [17]: > 32 µM (inactive) | IC50 [18]: 13.2 µM (active) | IC50 [19]: 9.83 µM (active) | IC50 [20]: 7.42 µM (active)

C/C(=N\NC(=O)c1ccccc1F)c1ccccn1
EC50 [21]: 18 µM (active) | EC50 [9]: 12 µM (inconclusive) | IC50 [22]: 9.17 µM (active) | EC50 [12]: 4.68 µM (inconclusive) | IC50 [23]: > 20 µM (inactive) | EC50 [24]: > 20 µM (inactive) | IC50 [25]: 3.76 µM (inactive) | IC50 [26]: > 20 µM (inactive) | EC50 [15]: 10.9 µM (active) | EC50 [16]: 2.9 µM (active) | IC50 [27]: 5.72 µM (active)

CCOC(=O)c1sc(=S)n(-c2ccccc2Cl)c1SC
EC50 [1]: 10.7 µM (inactive) | EC50 [3]: > 79.4 µM (not active) | EC50 [5]: 12.5 µM (not active) | IC50 [28]: > 66 µM (inactive) | IC50 [29]: > 66 µM (inactive)

— ChEMBL document CHEMBL1201862, “PubChem BioAssay data set” (2004)
